≈ marks a conversion by molar mass, not a printed value.
What was measured:
[1] = system: Pseudomonas aeruginosa; assay: Antimicrobial activity Pseudomonas aeruginosa ATCC 13525 by MTT assay
[2] = system: Enterobacter cloacae; assay: Antimicrobial activity Enterobacter cloacae ATCC 13047 by MTT assay; assay type: functional
[3] = system: Bacillus subtilis; assay: Antimicrobial activity Bacillus subtilis ATCC 6633 by MTT assay; assay type: functional
[4] = system: Enterococcus faecalis; assay: Antimicrobial activity Streptococcus faecalis ATCC 9790 by MTT assay; assay type: functional
[5] = system: Staphylococcus aureus; assay: Antimicrobial activity Staphylococcus aureus ATCC 6538 by MTT assay; assay type: functional
[6] = system: Escherichia coli; assay: Antimicrobial activity Escherichia coli ATCC 35218 by MTT assay
[7] = molecular target: T1, 3-oxoacyl-[acyl-carrier-protein] synthase 3 (Escherichia coli, UniProt C3TDZ2); assay: Inhibition of Escherichia coli FabH
T1 sequence (C3TDZ2 whole entry): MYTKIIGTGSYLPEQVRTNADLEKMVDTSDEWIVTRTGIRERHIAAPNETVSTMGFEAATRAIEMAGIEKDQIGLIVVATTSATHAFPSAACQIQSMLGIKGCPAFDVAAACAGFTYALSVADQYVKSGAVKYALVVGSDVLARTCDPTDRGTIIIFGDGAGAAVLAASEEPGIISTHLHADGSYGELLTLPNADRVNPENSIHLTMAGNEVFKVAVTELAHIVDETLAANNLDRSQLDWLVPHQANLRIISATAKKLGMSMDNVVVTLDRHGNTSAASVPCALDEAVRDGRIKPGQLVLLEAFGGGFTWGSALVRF

[8] = Toxicity in erythrocytes assessed as hemolysis; assay type: cell-based; details: erythrocyte

Compound	MIC [1]	MIC [2]	MIC [3]	MIC [4]	MIC [5]	MIC [6]	IC50 [7]	LC30 [8]
Fc1ccc(/C=N/Nc2nc(-c3ccccc3)cs2)cc1	12.5 µg/mL (≈ 42 µM)	> 50 µg/mL	12.5 µg/mL (≈ 42 µM)	> 50 µg/mL	6.25 µg/mL (≈ 21 µM)			
COc1ccc(/C=N/Nc2nc(-c3ccccc3)cs2)cc1	> 50 µg/mL	> 50 µg/mL	25 µg/mL (≈ 80.8 µM)	> 50 µg/mL	> 50 µg/mL			
Clc1ccc(-c2csc(N/N=C/c3ccc(Br)cc3)n2)cc1Cl	12.5 µg/mL (≈ 29.3 µM)	> 50 µg/mL	6.25 µg/mL (≈ 14.6 µM)	25 µg/mL (≈ 58.5 µM)	3.12 µg/mL (≈ 7.32 µM)	12.5 µg/mL (≈ 29.3 µM)		
Oc1c(Cl)cc(Cl)cc1/C=N/Nc1nc(-c2ccccc2)cs1	> 50 µg/mL	12.5 µg/mL (≈ 34.3 µM)	25 µg/mL (≈ 68.6 µM)	25 µg/mL (≈ 68.6 µM)	> 50 µg/mL			
Clc1ccc(/C=N/Nc2nc(-c3ccc(Cl)cc3)cs2)cc1	6.25 µg/mL (≈ 17.9 µM)	> 50 µg/mL	> 50 µg/mL	> 50 µg/mL	12.5 µg/mL (≈ 35.9 µM)			
COc1ccc(/C=N/Nc2nc(-c3ccc(Cl)c(Cl)c3)cs2)cc1	25 µg/mL (≈ 66.1 µM)	6.25 µg/mL (≈ 16.5 µM)	25 µg/mL (≈ 66.1 µM)	> 50 µg/mL	25 µg/mL (≈ 66.1 µM)			
Oc1ccc(Br)cc1/C=N/Nc1nc(-c2ccccc2)cs1	25 µg/mL (≈ 66.8 µM)	25 µg/mL (≈ 66.8 µM)	12.5 µg/mL (≈ 33.4 µM)	12.5 µg/mL (≈ 33.4 µM)	25 µg/mL (≈ 66.8 µM)			
Cc1ccc(/C=N/Nc2nc(-c3ccc(Cl)cc3)cs2)cc1	25 µg/mL (≈ 76.3 µM)	6.25 µg/mL (≈ 19.1 µM)	6.25 µg/mL (≈ 19.1 µM)	12.5 µg/mL (≈ 38.1 µM)	25 µg/mL (≈ 76.3 µM)			
Clc1ccc(/C=N/Nc2nc(-c3ccc(Cl)c(Cl)c3)cs2)cc1	12.5 µg/mL (≈ 32.7 µM)	25 µg/mL (≈ 65.3 µM)	12.5 µg/mL (≈ 32.7 µM)	25 µg/mL (≈ 65.3 µM)	1.56 µg/mL (≈ 4.08 µM)	12.5 µg/mL (≈ 32.7 µM)		
Cc1ccc(/C=N/Nc2nc(-c3ccc(Cl)c(Cl)c3)cs2)cc1	25 µg/mL (≈ 69 µM)	12.5 µg/mL (≈ 34.5 µM)	> 50 µg/mL	> 50 µg/mL	25 µg/mL (≈ 69 µM)	25 µg/mL (≈ 69 µM)		
Oc1ccc(Cl)cc1/C=N/Nc1nc(-c2ccc(Cl)cc2)cs1	12.5 µg/mL (≈ 34.3 µM)	12.5 µg/mL (≈ 34.3 µM)	6.25 µg/mL (≈ 17.2 µM)	25 µg/mL (≈ 68.6 µM)	12.5 µg/mL (≈ 34.3 µM)		11.7 µM	> 10000 µg/mL
CC1(C)S[C@@H]2[C@H](NC(=O)Cc3ccccc3)C(=O)N2[C@H]1C(=O)O [PENICILLIN G]	6.25 µg/mL (≈ 18.7 µM)	3.12 µg/mL (≈ 9.35 µM)	1.56 µg/mL (≈ 4.67 µM)	1.56 µg/mL (≈ 4.67 µM)	1.56 µg/mL (≈ 4.67 µM)	6.25 µg/mL (≈ 18.7 µM)		
Clc1ccc(/C=N/Nc2nc(-c3ccccc3)cs2)cc1	25 µg/mL (≈ 79.7 µM)	25 µg/mL (≈ 79.7 µM)	25 µg/mL (≈ 79.7 µM)	25 µg/mL (≈ 79.7 µM)	25 µg/mL (≈ 79.7 µM)			
Oc1c(Cl)cc(Cl)cc1/C=N/Nc1nc(-c2ccc(Cl)cc2)cs1	6.25 µg/mL (≈ 15.7 µM)	> 50 µg/mL	> 50 µg/mL	12.5 µg/mL (≈ 31.4 µM)	> 50 µg/mL	6.25 µg/mL (≈ 15.7 µM)	57.6 µM	> 10000 µg/mL
Oc1c(Br)cc(Br)cc1/C=N/Nc1nc(-c2ccccc2)cs1	25 µg/mL (≈ 55.2 µM)	25 µg/mL (≈ 55.2 µM)	12.5 µg/mL (≈ 27.6 µM)	25 µg/mL (≈ 55.2 µM)	> 50 µg/mL	25 µg/mL (≈ 55.2 µM)		
Cc1ccc(/C=N/Nc2nc(-c3ccccc3)cs2)cc1	25 µg/mL (≈ 85.2 µM)	> 50 µg/mL	> 50 µg/mL	> 50 µg/mL	25 µg/mL (≈ 85.2 µM)			
Oc1c(Br)cc(Br)cc1/C=N/Nc1nc(-c2ccc(Cl)c(Cl)c2)cs1	3.12 µg/mL (≈ 5.99 µM)	3.12 µg/mL (≈ 5.99 µM)	3.12 µg/mL (≈ 5.99 µM)	6.25 µg/mL (≈ 12 µM)	6.25 µg/mL (≈ 12 µM)		3.6 µM	> 10000 µg/mL
Fc1ccc(/C=N/Nc2nc(-c3ccc(Cl)c(Cl)c3)cs2)cc1	25 µg/mL (≈ 68.3 µM)	25 µg/mL (≈ 68.3 µM)	6.25 µg/mL (≈ 17.1 µM)	6.25 µg/mL (≈ 17.1 µM)	0.78 µg/mL (≈ 2.13 µM)	25 µg/mL (≈ 68.3 µM)		
Oc1ccc(Br)cc1/C=N/Nc1nc(-c2ccc(Cl)cc2)cs1	6.25 µg/mL (≈ 15.3 µM)	6.25 µg/mL (≈ 15.3 µM)	25 µg/mL (≈ 61.2 µM)	12.5 µg/mL (≈ 30.6 µM)	6.25 µg/mL (≈ 15.3 µM)		6.8 µM	> 10000 µg/mL
Brc1ccc(/C=N/Nc2nc(-c3ccccc3)cs2)cc1	12.5 µg/mL (≈ 34.9 µM)	25 µg/mL (≈ 69.8 µM)	> 50 µg/mL	1.56 µg/mL (≈ 4.36 µM)	12.5 µg/mL (≈ 34.9 µM)			
Oc1c(Cl)cc(Cl)cc1/C=N/Nc1nc(-c2ccc(Cl)c(Cl)c2)cs1	6.25 µg/mL (≈ 14.4 µM)	12.5 µg/mL (≈ 28.9 µM)	12.5 µg/mL (≈ 28.9 µM)	12.5 µg/mL (≈ 28.9 µM)	6.25 µg/mL (≈ 14.4 µM)		16.5 µM	> 10000 µg/mL
COc1ccc(/C=N/Nc2nc(-c3ccc(Cl)cc3)cs2)cc1	25 µg/mL (≈ 72.7 µM)	> 50 µg/mL	12.5 µg/mL (≈ 36.4 µM)	> 50 µg/mL	25 µg/mL (≈ 72.7 µM)			
NC[C@H]1O[C@H](O[C@H]2[C@H](O)[C@@H](O[C@H]3O[C@H](CO)[C@@H](O)[C@H](N)[C@H]3O)[C@H](N)C[C@@H]2N)[C@H](N)[C@@H](O)[C@@H]1O [BEKANAMYCIN]	3.12 µg/mL (≈ 6.46 µM)	1.56 µg/mL (≈ 3.23 µM)	0.39 µg/mL (≈ 0.807 µM)	3.12 µg/mL (≈ 6.46 µM)	1.56 µg/mL (≈ 3.23 µM)	3.12 µg/mL (≈ 6.46 µM)		
Oc1ccc(Br)cc1/C=N/Nc1nc(-c2ccc(Cl)c(Cl)c2)cs1	12.5 µg/mL (≈ 28.2 µM)	12.5 µg/mL (≈ 28.2 µM)	12.5 µg/mL (≈ 28.2 µM)	> 50 µg/mL	25 µg/mL (≈ 56.4 µM)		43.4 µM	> 10000 µg/mL
Oc1ccc(Cl)cc1/C=N/Nc1nc(-c2ccccc2)cs1	12.5 µg/mL (≈ 37.9 µM)	> 50 µg/mL	> 50 µg/mL	25 µg/mL (≈ 75.8 µM)	> 50 µg/mL	12.5 µg/mL (≈ 37.9 µM)		
Oc1ccc(Cl)cc1/C=N/Nc1nc(-c2ccc(Cl)c(Cl)c2)cs1	12.5 µg/mL (≈ 31.4 µM)	> 50 µg/mL	> 50 µg/mL	12.5 µg/mL (≈ 31.4 µM)	12.5 µg/mL (≈ 31.4 µM)		39.6 µM	> 10000 µg/mL
Oc1c(Br)cc(Br)cc1/C=N/Nc1nc(-c2ccc(Cl)cc2)cs1	25 µg/mL (≈ 51.3 µM)	6.25 µg/mL (≈ 12.8 µM)	> 50 µg/mL	> 50 µg/mL	25 µg/mL (≈ 51.3 µM)		78.4 µM	> 10000 µg/mL
Clc1ccc(-c2csc(N/N=C/c3ccc(Br)cc3)n2)cc1	> 50 µg/mL	12.5 µg/mL (≈ 31.8 µM)	12.5 µg/mL (≈ 31.8 µM)	25 µg/mL (≈ 63.7 µM)	12.5 µg/mL (≈ 31.8 µM)			
Fc1ccc(/C=N/Nc2nc(-c3ccc(Cl)cc3)cs2)cc1	25 µg/mL (≈ 75.3 µM)	25 µg/mL (≈ 75.3 µM)	12.5 µg/mL (≈ 37.7 µM)	12.5 µg/mL (≈ 37.7 µM)	6.25 µg/mL (≈ 18.8 µM)			

From ChEMBL document CHEMBL1154629, “Design, synthesis and biological evaluation of novel thiazole derivatives as potent FabH inhibitors” (Bioorg Med Chem Lett, 2009)
